Values after ≈ are worked out from the molar mass of the structure shown. Values joined by “and” are separate entries in the source; they are usually repeats but may differ in a detail not shown here. Equal values may be shown once.
Columns and labels:
M. plutonius = assay: Investigation into bacteriostatic or bactericidal effects (Study 2); assay type: cell-based, Melissococcus plutonius; settings: conclusion from subculture after exposure
Method: Where there was no growth in a replicate, at the end of one week the culture was plated out for single colonies on the appropriate agar. This was to determine whether the test item had bactericidal activity, where all the bacterial cells are killed, or bacteriostatic action, where the cells are unable to replicate in the presence of the substance, but will grow when it is removed. A further test, where 0.5 ml of the broth was transferred into 4.5 ml fresh broth (giving a 1:10 dilution) was also undertaken. There would still be some Allicin in the broth, but it should be present at a low enough concentration for growth not to be affected. Where growth occurred in the absence of Allicin, the broth was examined microscopically and plated out for single colonies to confirm the identity of the bacterium.

Ent. Hirae = assay: Agar inhibition test; assay type: cell-based, Enterococcus hirae; settings: equivalent to 0.0225% w/v
Ascosphaera aggregata [1] = assay: MIC by broth microdilution, bee pathogens; assay type: cell-based; settings: range 1000 ppm to 0.25 ppm
From the text: (§1) We tested allicia (Allisure™ Liquid) activity against several species of entomopathogenic bacteria (Paenibacillus larvae subsp. larvae, Paenibacillus larvae subsp. pulvifaciens) and fungi (Ascosphaera apis and Ascosphaera aggregata) using broth microdilution method to determine minimum inhibitory concentration (MIC) and the agar diffusion test (Kirby-Bauer) to determine zone of inhibition. Bacterial spores were isolated from the diseased honey bee larval samples. […]
(§2) Fungal spores (Ascosphaera apis) were collected from black honey bee mummies and (Ascosphaera aggregata) spores were collected from the diseased leaf cutter bees. […] The fungal colonies were analyzed by microscopic preparations of aerial mycelia and fungal spore cysts. […]
(§3) Positive controls contained the antibiotic Tylosin (Tylan® 50, Elanco Animal Health Inc., IN) and negative controls contained no antibiotics. […] The optical densities of cultures (OD 600) were recorded 24 h and 48 h post inoculation, depending on the growth rate of the microbial species. […] Minimum bactericidal concentration values (NBC) were determined for allicin by plating out 100 μl of bacterial cultures derived from the MIC assay. […]

Ascosphaera apis [2] = assay: MIC by broth microdilution, bee pathogens; assay type: cell-based; settings: range 1000 ppm to 0.25 ppm
From the text: as §1, §2, §3

chickens = assay: In vivo trial of allicin in the drinking water of chickens, two sheds
Method: An in vivo trial has also been conducted in which two adjacent sheds each of 10,000 chickens were compared. Each shed was supplied with 1000 litres of water per day. For 7 days, the water for one shed had 1.5 litres of allicin solution (1000 ppm) added to the water supply, with 1 litre of allicin solution (1000 ppm) being added per day for a further 3 days. In the control shed, no allicin solution was added.
After just a few days, an improvement in the appearance of the health of the chickens in the allicin-treated shed was noted. For example, the combs of the chickens appeared redder and there was an increase of 2 percent in egg production. The vitality of the chickens improved. In contrast, in the control barn, E. coli infection was observed. Following completion of the trial, the livers of several of the birds were examined.

Staph. Aureus = assay: Zones of Inhibition against common chicken bacteria; assay type: cell-based; settings: Staphylococcus aureus
Ascosphaera aggregata [3] = assay: Disk diffusion test (Kirby-Bauer), zone of inhibition; assay type: cell-based; settings: 6 mm paper disc containing 250 μg of allicin
Method: (§4) Allicin (Allisure™ Liquid) was tested against bacterial and fungal pathogens using a standard disk diffusion method (per Norrell & Messley). The aliquots of bacterial or fungal spores (100 μl of approximately 10^8-10^9 spores/ml) were plated on Mueller-Hinton agar medium, 4.0 mm depth. The 6 mm paper discs containing 250 μg of allicin or 5 μg of tylosin (positive control) were placed in the center of each plate. Plates were incubated at 33° C. and 6% CO2 and a zone of inhibition was measured 24 h, 48 h or 76 h post inoculation depending on the microbial species. All experiments were replicated at least three times.

[4] = system: Paenibacillus larvae subsp. pulvifaciens; assay: as above; assay type: cell-based; settings: 6 mm paper disc containing 250 μg of allicin
Method: as §4

[5] = system: Paenibacillus larvae subsp. larvae; assay: as above; assay type: cell-based; settings: 6 mm paper disc containing 250 μg of allicin
Method: as §4

Ascosphaera apis [6] = assay: as above; assay type: cell-based; settings: 6 mm paper disc containing 250 μg of allicin
Method: as §4

[7] = system: GISA strain isolated from the UK mortality; assay: Standard agar diffusion test against a GISA strain; assay type: cell-based, Staphylococcus aureus
From the text: Allicin in a liquid form has been tested against the GISA strain isolated from the UK mortality. In a standard agar diffusion test the strain produced a zone of 37 mm at 500 ppm (FIG. 2) and 30 mm at 300 ppm.

SMILES: C=CCS[S+]([O-])CC=C (stereo not shown) [allicin, Allicin]
- bacteriostatic or bactericidal effect (M. plutonius): bacteriostatic rather than bactericidal effects
- allicin concentration at which inhibition was demonstrated on agar plates (Ent. Hirae): ≤ 0.225 g/L
- MIC (Ascosphaera aggregata [1]): 250 µg/mL (≈ 1540 µM)
- MIC (Ascosphaera apis [2]): 250 µg/mL (≈ 1540 µM)
- increase in egg production (chickens; allicin solution (1000 ppm) 1.5 litres/day in 1000 litres water for 7 days, then 1 litre/day for 3 days, vs control shed): 2%
- resistance to chicken bloodlice (chickens; allicin-treated shed vs control shed): improved resistance
- evidence of E. coli infection in livers (chickens; livers examined after completion of the trial, vs control chickens): did not
- zone of inhibition at 166 ppm (Staph. Aureus; 166 ppm (1:6 dilution)): 0 mm
- zone of inhibition at 1000 ppm (Staph. Aureus; 1000 ppm): 32 mm
- zone of inhibition (Ascosphaera aggregata [3]): 35-37 mm and 35-38 mm
- zone of inhibition [4]: 24-26 mm
- zone of inhibition [5]: 45-50 mm
- zone of inhibition (Ascosphaera apis [6]): 31-35 mm
- zone of inhibition at 300 ppm ([7]; Staphylococcus aureus, 300 ppm, allicin in a liquid form): 30 mm
- zone of inhibition at 500 ppm ([7]; Staphylococcus aureus, 500 ppm, allicin in a liquid form): 37 mm
- susceptibility of the GISA strain ([7]; recommended doses for topical use): fully susceptible

— patent publication US20090275667A1, “USE OF ALLICIN AS PRESERVATIVE, AS DISINFECTANT, AS ANTIMICROBIAL OR AS BIOCIDAL AGENT” (Stone Island Holdings Ltd, priority 2003, published 2009)
